Earlier results, collected in patent US20080112910A1, “Cool feeling composition, cool feeling auxiliary composition, and use thereof” (priority 2002, published 2008).

Details: as compared with menthol

**Q.** For `COC(=O)c1ccccc1O` [methyl salicylate], which “stimulation of cool feeling” value is on record?
**A.** Its value is “very weak”.

**Q.** And the “stimulation of hot feeling” value?
**A.** Its value is “strong”.
